Where “and” joins values, the source holds several entries; their conditions need not be identical. Equal entries are not always repeated. Where two headings read alike, the source gives them in different places.
Experiments:
in vitro [1] = settings: human
Experimental: Absorption properties of various compounds were measured using bi-directional permeability assays in Caco-2 cells. […] The efflux ratio is calculated as the ratio of the Papp(B→A)/Papp(A→B).

[2] = Metabolic stability in rat liver microsomes; type: in vitro ADME
Excerpt: Metabolic stability of test compounds was studied in rat liver microsomes.

CEM-SS cells [3] = experiment: CEM-SS macromolecule synthesis (tritiated precursor incorporation); type: cell-based; settings: for Thymidine incorportation (CEM-SS) TC50: DNA synthesis; for Uridine incorporation (CEM-SS) TC50: RNA synthesis; for Leucine Incorporation (CEM-SS) TC50: protein synthesis
Experimental: Cellular macromolecule synthesis was evaluated using tritiated precursor incorporation assays. CEM-SS cells (2.5×10^3 cells/well) were cultured in the presence or absence of test compound for 7 days at 37 C, 5% CO2 in a 96-well microtiter plate. On day 6 of the incubation, 1 uCi of [methyl-3H]-thymidine for DNA synthesis, [5-3H]-uridine for RNA synthesis, or [3,4,5-3H]-leucine for protein synthesis was added to compound-treated cells, and the plate was further incubated for 16 hours. The cells were transferred to a glass fiber filtermat using an Inotech cell harvester. The filtermats were washed with distilled water then sealed in a bag with scintillation fluid. Incorporated radioactivity was measured using a Wallac scintillation counter.

in vitro [4] = type: in vitro ADME; settings: monkey, microsomes
Excerpt: Metabolic stability of test compounds was studied in monkey liver microsomes.

CEM-SS cells [5] = experiment: CEM-SS cytotoxicity (XTT); settings: 7 days
Experimental: One day prior to assay initiation, cells were split 1:2 to assure exponential growth at the time of the assay. Cells were counted using a hemocytometer, and viability measured by Trypan Blue dye exclusion. […] CEM-SS cells were resuspended at 5×10^4 cells/mL in medium, and 100 μL of the cell suspension was aliquoted to individual wells of a 96-well microtiter plate containing 100 μL 2× concentration test compound. Plates were incubated for 7 days at 37° C., 5% CO2 until cytotoxicity evaluation.
Test compound-induced cytotoxicity was evaluated by monitoring the reduction of the tetrazolium dye XTT to a soluble formazan product in microtiter plates containing compound-treated cells in the absence of HIV-1 virus. XTT solution was prepared at 0.15 mg/mL in phosphate buffered saline. Phenazine methosulfate (PMS) solution was prepared at 0.15 mg/mL in phosphate buffered saline. A XTT/PMS stock solution was prepared immediately before use by combining 40 uL of PMS per mL of XTT solution. Fifty microliters of the XTT/PMS stock was added to each well of the microtiter plate, the plate was incubated for four hours at 37° C., and the amount of soluble formazan product was measured as the absorbance at 450 nm. Cell viability is directly proportional to the amount of soluble formazan product formed.

[6] = Plasma protein binding by equilibrium dialysis, human plasma; type: in vitro ADME; settings: human plasma, 5 μM, fraction unbound; read-out: Plasma Protein Binding Fu ± SD
Method in brief: (§1)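 Test compound solutions (5 μM, final DMSO 0.5%) are made in buffer and in plasma of the relevant species. Plasma solution goes on one membrane side, plasma-free solution on the other. After 2 h at 37 °C, both sides are analysed by LC-MS/MS.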

dog plasma proteins = experiment: Plasma protein binding by equilibrium dialysis, dog plasma; type: in vitro ADME; settings: fraction unbound
Experimental: In assays to estimate binding of test compounds to plasma proteins, test compound solutions (5 μM) are prepared in buffer and species-specific plasma (final DMSO concentration 0.5%). The plasma-containing solution is added to one side of the membrane of an equilibrium dialysis system, and the plasma-free is added to the other side. Dialysis was allowed to reach equilibrium by incubation for two hours at 37° C. The concentration of compound on both sides of the membrane was measured using LC-MS/MS.

[7] = biological target: recombinant HIV-1 protease (Human immunodeficiency virus type 1 group M subtype B (isolate HXB2) (HIV-1), UniProt P04585); experiment: Enzyme inhibition of purified HIV-1 protease (SensoLyte 520 HIV-Protease Assay Kit); type: biochemical
Method in brief: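 PEG-PI conjugates and parent PIs were tested against recombinant HIV-1 protease. Activity was followed as fluorescence from cleavage of a quenched substrate carrying the p17/p24 Pr^gag cleavage site.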

human hepatocytes = experiment: Metabolic stability in cryopreserved human hepatocytes; settings: human hepatocytes
Method in brief: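 Test compounds at 0.1 μM or 3 μM incubated with cryopreserved human hepatocytes at 0.5×10^6 viable cells/mL. Sampling up to four hours (0.1 μM) or one or two hours (3 μM), methanol quench, then remaining parent measured by cassette LC-MS/MS.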

CYP2C9 = CYP2C9 (Homo sapiens (Human), UniProt P11712); settings: microsomes
[8] = tested on: human liver microsomal proteins; experiment: Microsomal protein binding by equilibrium dialysis; type: in vitro ADME; settings: human liver microsomes, 3 μM, fraction unbound
Method in brief: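 Compound at 3 μM final in buffer with or without human liver microsomes, dialysed to equilibrium at 37 °C. Both sides quantified by LC-MS/MS to derive fraction unbound (Fu).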

human plasma proteins = experiment: Plasma protein binding by equilibrium dialysis, human plasma; type: in vitro ADME; settings: human plasma, 5 μM, fraction unbound
Method in brief: as §1

Sequence of CYP2C9 (P11712 whole entry): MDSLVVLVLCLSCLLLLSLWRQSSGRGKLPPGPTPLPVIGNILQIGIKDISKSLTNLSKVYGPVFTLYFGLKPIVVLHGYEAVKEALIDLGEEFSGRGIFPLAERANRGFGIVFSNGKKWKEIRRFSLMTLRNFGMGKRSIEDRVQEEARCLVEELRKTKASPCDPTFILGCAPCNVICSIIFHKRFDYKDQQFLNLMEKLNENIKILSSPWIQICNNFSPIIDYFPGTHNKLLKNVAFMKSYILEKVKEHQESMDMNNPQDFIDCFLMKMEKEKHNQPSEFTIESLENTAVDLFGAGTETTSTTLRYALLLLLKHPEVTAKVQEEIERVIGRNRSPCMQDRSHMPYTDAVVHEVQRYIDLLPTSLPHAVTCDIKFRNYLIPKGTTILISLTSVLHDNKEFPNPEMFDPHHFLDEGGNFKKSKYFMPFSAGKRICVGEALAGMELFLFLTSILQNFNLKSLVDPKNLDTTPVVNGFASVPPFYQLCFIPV

| SMILES | Thymidine incorportation (CEM-SS) TC50 (CEM-SS cells [3]) | Uridine incorporation (CEM-SS) TC50 (CEM-SS cells [3]) | Leucine Incorporation (CEM-SS) TC50 (CEM-SS cells [3]) | XTT (CEM-SS) TC50 (CEM-SS cells [5]) | Dog Plasma Protein Binding Fu ± SD (dog plasma proteins) | IC50 ([7]; read-out: IC50 ± SD) | CLint ± SEM (human hepatocytes; 0.1 uM, up to four hours) | t1/2 (human hepatocytes; 0.1 uM, up to four hours) | IC50 (CYP2C9) | Microsomal Protein Binding Fu ± SD [8] | Plasma Protein Binding Fu ± SD (human plasma proteins) | further results |
| --- | --- | --- | --- | --- | --- | --- | --- | --- | --- | --- | --- | --- |
| COCCOCCOCCOC(=O)NC(C(=O)NC(Cc1ccccc1)C(O)CN(Cc1ccc(-c2ccccn2)cc1)NC(=O)C(NC(=O)OC)C(C)(C)C)C(C)(C)C (stereo not shown) [mono-mPEG3-Atazanavir, {1-[N′-[2-Hydroxy-3-(2-{2-[2-(2-methoxy-ethoxy)-ethoxy]-ethoxycarbonylamino}-3,3-dimethyl-butyrylamino)-4-phenyl-butyl]-N′-(4-pyridin-2-yl-benzyl)-hydrazinocarbonyl]-2,2-dimethyl-propyl}-carbamic Acid Methyl Ester] | 396.2 µM | 396.6 µM | >400 µM | >400 µM |  |  |  |  |  |  |  | efflux ratio (in vitro [1]; Caco-2): 44; Papp A→B (in vitro [1]; Caco-2, A→B, ×10^−6): 0.53 ×10⁻⁶ cm/s; half-life [2]: 26.8 min; half-life (in vitro [4]): 26.8 min; microsomal CLint (in vitro [4]): 249 µL/min/mg; fraction unbound at 2 h, 5 μM [6]: 0.217 ± 0.000495 |
| COCCOCCOCCOCCOCCOCCOC(=O)NC(C(=O)NC(Cc1ccccc1)C(O)CN(Cc1ccc(-c2ccccn2)cc1)NC(=O)C(NC(=O)OC)C(C)(C)C)C(C)(C)C (stereo not shown) [mono-mPEG6-Atazanavir] |  |  |  |  | 0.497 ± 0.0386 | 0.00131 µM | 0.778 ± 0.000211 μL/min/10^6 cells | 1781 min | > 25 µM |  |  | t½ [2]: 104 min; Clint (in vitro [4]): 238 μL/min/mg protein; t½ (in vitro [4]): 104 min |
| COCCOCCOCCOCCOCCOC(=O)NC(C(=O)NC(Cc1ccccc1)C(O)CN(Cc1ccc(-c2ccccn2)cc1)NC(=O)C(NC(=O)OC)C(C)(C)C)C(C)(C)C (stereo not shown) [mono-mPEG5-Atazanavir] |  |  |  |  | 0.695 ± 0.118 | 0.00291 µM | 3.98 ± 0.000356 μL/min/10^6 cells | 348 min | 23.7 µM |  |  | t½ [2]: 57.6 min; Clint (in vitro [4]): 175 μL/min/mg protein; t½ (in vitro [4]): 57.6 min |
| COCCOC(=O)NC(C(=O)NC(Cc1ccccc1)C(O)CN(Cc1ccc(-c2ccccn2)cc1)NC(=O)C(NC(=O)OC)C(C)(C)C)C(C)(C)C (stereo not shown) [mono-mPEG1-Atazanavir] |  |  |  |  | 0.208 ± 0.0317 | 0.00282 µM | 15.3 ± 0.00173 μL/min/10^6 cells | 90.5 min | > 25 µM |  |  |  |
| COCCOCCOCCOCCOCCOCCOCCNc1ccc(S(=O)(=O)N(CC(C)C)CC(O)[C@H](Cc2ccccc2)NC(=O)O[C@H]2CO[C@H]3OCC[C@H]32)cc1 (stereo partly shown) [mPEG7-N-Darunavir] |  |  |  |  |  |  |  |  |  | 0.973 ± 0.0139 | 0.364 ± 0.0298 | CLint ± SEM (human hepatocytes; 3 uM, incubated up to one hour): 5.13 ± 0.611 μL/min/10^6 cells |
| COCCOCCOCCOCCOCCNc1ccc(S(=O)(=O)N(CC(C)C)CC(O)[C@H](Cc2ccccc2)NC(=O)O[C@H]2CO[C@H]3OCC[C@H]32)cc1 (stereo partly shown) [mPEG5-N-Darunavir] |  |  |  |  |  |  | 3.94 ± 0.386 μL/min/10^6 cells | 352 min |  | 0.864 ± 0.011 | 0.338 ± 0.0368 | CLint ± SEM (human hepatocytes; 3 uM, incubated up to one hour): 11.9 ± 1.40 μL/min/10^6 cells |
| COC(=O)N[C@H](C(=O)N[C@@H](Cc1ccccc1)[C@@H](O)CN(Cc1ccc(-c2ccccn2)cc1)NC(=O)[C@@H](NC(=O)OC)C(C)(C)C)C(C)(C)C [Atazanavir, reference compound] | 288.3 µM | 281.4 µM | 259.6 µM | 302.1 µM |  |  |  |  |  |  |  | Papp A→B (in vitro [1]; Caco-2, A→B, ×10^−6): 2.05 ×10⁻⁶ cm/s; half-life [2]: 24.2 min; half-life (in vitro [4]): 24.2 min; microsomal CLint (in vitro [4]): 42.9 µL/min/mg; IC50 ([7]; IC50 ± SD): 0.00155 µM and 0.00692 µM and 0.00512 µM and 0.0076 µM and 0.00737 µM; fraction unbound at 2 h, 5 μM [6]: 0.106 ± 5.25e-05 |
| COCCOCCOCCOCCOCCOc1ccc(C[C@H](NC(=O)O[C@H]2CO[C@H]3OCC[C@H]32)C(O)CN(CC(C)C)S(=O)(=O)c2ccc(N)cc2)cc1 (stereo partly shown) [mPEG5-O-Darunavir] | 165.7 µM | >400 µM | >400 µM | >400 µM |  |  |  |  |  | 0.804 ± 0.253 | 0.448 ± 0.0195 |  |
| COCCOCCOCCOc1ccc(C[C@H](NC(=O)O[C@H]2CO[C@H]3OCC[C@H]32)C(O)CN(CC(C)C)S(=O)(=O)c2ccc(N)cc2)cc1 (stereo partly shown) [mPEG3-O-Darunavir] | 262.9 µM | >400 µM | >400 µM | >400 µM |  |  |  |  |  | 0.936 ± 0.0109 | 0.274 ± 0.0194 |  |
| CC(C)CN(C[C@@H](O)[C@H](Cc1ccccc1)NC(=O)O[C@H]1CO[C@H]2OCC[C@H]21)S(=O)(=O)c1ccc(N)cc1 [Darunavir, reference compound] | 223.2 µM | >400 µM | 285.8 µM | 338.6 µM |  |  |  |  |  |  |  | Papp A→B (in vitro [1]; Caco-2): 2.55 ×10⁻⁶ cm/s; fraction unbound at 2 h, 5 μM [6]: 0.144 ± 0.0051 |
| COCCOCCOCCOCCOCCOCCOCCOC(=O)NC(C(=O)NC(Cc1ccccc1)C(O)CN(Cc1ccc(-c2ccccn2)cc1)NC(=O)C(NC(=O)OC)C(C)(C)C)C(C)(C)C (stereo not shown) [mono-mPEG7-Atazanavir] |  |  |  |  | 0.306 ± 0.0478 | 0.00129 µM |  |  | > 25 µM |  |  |  |
